Results: the supplement of paper PMC10733146

What was measured:
Test in all cases: viability relative to DMSO control (fraction); higher = less drug effect (more viable cells)
Settings in all cases: 48 h
[1] = test system: primary AML patient cells (S006)
How it was run: (§1)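 Viability was quantified by CellTiter-Glo luminescence and related to the median of 16 inner DMSO wells. Before that, primary mononuclear tumour cells, fresh or cryopreserved and Ficoll-isolated from blood or bone marrow or prepared from processed lymph node, were plated at 4 × 10^4 cells per well in 384-well plates containing pre-plated compounds at five concentrations, one well each. Plates were incubated in RPMI-1640 with penicillin/streptomycin, L-glutamine and human serum at 37 °C and 5% CO2 for 48 h.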

[2] = test system: primary AML patient cells (S089)
How it was run: as §1

[3] = test system: primary AML patient cells (S021)
How it was run: as §1

[4] = test system: primary AML patient cells (S037)
How it was run: as §1

[5] = test system: primary AML patient cells (S081)
How it was run: as §1

[6] = test system: primary AML patient cells (S011)
How it was run: as §1

[7] = test system: primary AML patient cells (S019)
How it was run: as §1

[8] = test system: primary AML patient cells (S017)
How it was run: as §1

[9] = test system: primary AML patient cells (S012)
How it was run: as §1

[10] = test system: primary AML patient cells (S085)
How it was run: as §1

[11] = test system: primary AML patient cells (S025)
How it was run: as §1

[12] = test system: primary AML patient cells (S091)
How it was run: as §1

[13] = test system: primary AML patient cells (S002)
How it was run: as §1

[14] = test system: primary CLL patient cells (S043)
How it was run: as §1

Question: How did the viability ([1]; 0.024 µM) turn out when `Nc1nc(Cl)nc2c1ncn2[C@@H]1O[C@H](CO)[C@@H](O)[C@@H]1F` [Clofarabine] was run?
Answer: 0.759

Question: And the viability ([1]; 0.12 µM)?
Answer: 0.381

Question: What about the viability ([1]; 0.6 µM) of the same compound?
Answer: 0.351

Question: And the viability ([1]; 3 µM)?
Answer: 0.461

Question: What about the viability ([1]; 15 µM) of the same compound?
Answer: 0.489

Question: And the viability ([2]; 0.024 µM)?
Answer: 0.851

Question: What about the viability ([2]; 0.12 µM) of the same compound?
Answer: 0.737

Question: What about the viability ([2]; 0.6 µM) of the same compound?
Answer: 0.506

Question: And the viability ([2]; 3 µM)?
Answer: 0.461

Question: And the viability ([2]; 15 µM)?
Answer: 0.327

Question: What about the viability ([3]; 0.024 µM) of the same compound?
Answer: 0.755

Question: What about the viability ([3]; 0.12 µM) of the same compound?
Answer: 0.425

Question: What about the viability ([3]; 0.6 µM) of the same compound?
Answer: 0.286

Question: What about the viability ([3]; 3 µM) of the same compound?
Answer: 0.21

Question: What about the viability ([3]; 15 µM) of the same compound?
Answer: 0.201

Question: And the viability ([4]; 0.024 µM)?
Answer: 1.01

Question: And the viability ([4]; 0.12 µM)?
Answer: 0.834

Question: What about the viability ([4]; 0.6 µM) of the same compound?
Answer: 0.656

Question: What about the viability ([4]; 3 µM) of the same compound?
Answer: 0.651

Question: And the viability ([4]; 15 µM)?
Answer: 0.627

Question: And the viability ([5]; 0.024 µM)?
Answer: 1.08

Question: What about the viability ([5]; 0.12 µM) of the same compound?
Answer: 1.07

Question: And the viability ([5]; 0.6 µM)?
Answer: 0.861

Question: And the viability ([5]; 3 µM)?
Answer: 0.684

Question: What about the viability ([5]; 15 µM) of the same compound?
Answer: 0.415

Question: And the viability ([6]; 0.024 µM)?
Answer: 0.762

Question: What about the viability ([6]; 0.12 µM) of the same compound?
Answer: 0.535

Question: And the viability ([6]; 0.6 µM)?
Answer: 0.299

Question: And the viability ([6]; 3 µM)?
Answer: 0.17

Question: What about the viability ([6]; 15 µM) of the same compound?
Answer: 0.0898

Question: What about the viability ([7]; 0.024 µM) of the same compound?
Answer: 0.918

Question: What about the viability ([7]; 0.12 µM) of the same compound?
Answer: 0.476

Question: What about the viability ([7]; 0.6 µM) of the same compound?
Answer: 0.392

Question: And the viability ([7]; 3 µM)?
Answer: 0.431

Question: What about the viability ([7]; 15 µM) of the same compound?
Answer: 0.345

Question: What about the viability ([8]; 0.024 µM) of the same compound?
Answer: 1.06

Question: And the viability ([8]; 0.12 µM)?
Answer: 0.91

Question: What about the viability ([8]; 0.6 µM) of the same compound?
Answer: 0.538

Question: What about the viability ([8]; 3 µM) of the same compound?
Answer: 0.3

Question: What about the viability ([8]; 15 µM) of the same compound?
Answer: 0.149

Question: What about the viability ([9]; 0.024 µM) of the same compound?
Answer: 0.956

Question: And the viability ([9]; 0.12 µM)?
Answer: 0.826

Question: And the viability ([9]; 0.6 µM)?
Answer: 0.459

Question: And the viability ([9]; 3 µM)?
Answer: 0.276

Question: And the viability ([9]; 15 µM)?
Answer: 0.136

Question: What about the viability ([10]; 0.024 µM) of the same compound?
Answer: 0.897

Question: And the viability ([10]; 0.12 µM)?
Answer: 0.41

Question: And the viability ([10]; 0.6 µM)?
Answer: 0.286

Question: What about the viability ([10]; 3 µM) of the same compound?
Answer: 0.468

Question: What about the viability ([10]; 15 µM) of the same compound?
Answer: 0.555

Question: And the viability ([11]; 0.024 µM)?
Answer: 0.528

Question: What about the viability ([11]; 0.12 µM) of the same compound?
Answer: 0.46

Question: What about the viability ([11]; 0.6 µM) of the same compound?
Answer: 0.478

Question: What about the viability ([11]; 3 µM) of the same compound?
Answer: 0.492

Question: And the viability ([11]; 15 µM)?
Answer: 0.463

Question: What about the viability ([12]; 0.024 µM) of the same compound?
Answer: 0.661

Question: What about the viability ([12]; 0.12 µM) of the same compound?
Answer: 0.527

Question: And the viability ([12]; 0.6 µM)?
Answer: 0.482

Question: What about the viability ([12]; 3 µM) of the same compound?
Answer: 0.459

Question: What about the viability ([12]; 15 µM) of the same compound?
Answer: 0.425

Question: What about the viability ([13]; 0.024 µM) of the same compound?
Answer: 0.696

Question: And the viability ([13]; 0.12 µM)?
Answer: 0.427

Question: What about the viability ([13]; 0.6 µM) of the same compound?
Answer: 0.375

Question: And the viability ([13]; 3 µM)?
Answer: 0.387

Question: What about the viability ([13]; 15 µM) of the same compound?
Answer: 0.329

Question: What about the viability ([14]; 0.024 µM) of the same compound?
Answer: 1

Question: And the viability ([14]; 0.12 µM)?
Answer: 0.888

Question: What about the viability ([14]; 0.6 µM) of the same compound?
Answer: 0.457

Question: What about the viability ([14]; 3 µM) of the same compound?
Answer: 0.284

Question: What about the viability ([14]; 15 µM) of the same compound?
Answer: 0.157

Question: Which viability ([1]; 0.016 µM) does the source give for `CC1(COc2ccc3c(c2)ncn3-c2ccc3cccc(N4CCC(N)CC4)c3n2)COC1` [Crenolanib] here?
Answer: 0.559

Question: And the viability ([1]; 0.08 µM)?
Answer: 0.649

Question: What about the viability ([1]; 0.4 µM) of the same compound?
Answer: 0.889

Question: What about the viability ([1]; 2 µM) of the same compound?
Answer: 0.977

Question: What about the viability ([1]; 10 µM) of the same compound?
Answer: 0.333

Question: What about the viability ([2]; 0.016 µM) of the same compound?
Answer: 0.824

Question: And the viability ([2]; 0.08 µM)?
Answer: 0.612

Question: What about the viability ([2]; 0.4 µM) of the same compound?
Answer: 0.835

Question: What about the viability ([2]; 2 µM) of the same compound?
Answer: 0.835

Question: What about the viability ([2]; 10 µM) of the same compound?
Answer: 0.0567

Question: What about the viability ([3]; 0.016 µM) of the same compound?
Answer: 1.04

Question: And the viability ([3]; 0.08 µM)?
Answer: 1.15

Question: And the viability ([3]; 0.4 µM)?
Answer: 1.17

Question: And the viability ([3]; 2 µM)?
Answer: 0.984

Question: What about the viability ([3]; 10 µM) of the same compound?
Answer: 0.453

Question: What about the viability ([4]; 0.016 µM) of the same compound?
Answer: 1.06

Question: And the viability ([4]; 0.08 µM)?
Answer: 1.09

Question: And the viability ([4]; 0.4 µM)?
Answer: 1.04

Question: And the viability ([4]; 2 µM)?
Answer: 0.811

Question: And the viability ([4]; 10 µM)?
Answer: 0.572

Question: What about the viability ([5]; 0.016 µM) of the same compound?
Answer: 0.948

Question: What about the viability ([5]; 0.08 µM) of the same compound?
Answer: 1.09

Question: What about the viability ([5]; 0.4 µM) of the same compound?
Answer: 0.953

Question: And the viability ([5]; 2 µM)?
Answer: 1.07

Question: What about the viability ([5]; 10 µM) of the same compound?
Answer: 0.0325

Question: And the viability ([6]; 0.016 µM)?
Answer: 1.14

Question: And the viability ([6]; 0.08 µM)?
Answer: 0.997

Question: And the viability ([6]; 0.4 µM)?
Answer: 1.02

Question: What about the viability ([6]; 2 µM) of the same compound?
Answer: 0.824

Question: And the viability ([6]; 10 µM)?
Answer: 0.0337

Question: What about the viability ([7]; 0.016 µM) of the same compound?
Answer: 0.927

Question: What about the viability ([7]; 0.08 µM) of the same compound?
Answer: 1.17

Question: And the viability ([7]; 0.4 µM)?
Answer: 0.995

Question: And the viability ([7]; 2 µM)?
Answer: 1.19

Question: And the viability ([7]; 10 µM)?
Answer: 0.148

Question: And the viability ([8]; 0.016 µM)?
Answer: 1.05

Question: What about the viability ([8]; 0.08 µM) of the same compound?
Answer: 1.09

Question: What about the viability ([8]; 0.4 µM) of the same compound?
Answer: 1.12

Question: And the viability ([8]; 2 µM)?
Answer: 1.16

Question: And the viability ([8]; 10 µM)?
Answer: 0.109

Question: What about the viability ([9]; 0.016 µM) of the same compound?
Answer: 0.935

Question: What about the viability ([9]; 0.08 µM) of the same compound?
Answer: 0.964

Question: What about the viability ([9]; 0.4 µM) of the same compound?
Answer: 0.978

Question: And the viability ([9]; 2 µM)?
Answer: 0.959

Question: What about the viability ([9]; 10 µM) of the same compound?
Answer: 0.528

Question: And the viability ([10]; 0.016 µM)?
Answer: 1.13

Question: And the viability ([10]; 0.08 µM)?
Answer: 1.3

Question: What about the viability ([10]; 0.4 µM) of the same compound?
Answer: 2.22

Question: What about the viability ([10]; 2 µM) of the same compound?
Answer: 1.82

Question: What about the viability ([10]; 10 µM) of the same compound?
Answer: 0.0652

Question: And the viability ([11]; 0.016 µM)?
Answer: 0.983

Question: What about the viability ([11]; 0.08 µM) of the same compound?
Answer: 1.12

Question: What about the viability ([11]; 0.4 µM) of the same compound?
Answer: 1.29

Question: And the viability ([11]; 2 µM)?
Answer: 1.29

Question: What about the viability ([11]; 10 µM) of the same compound?
Answer: 0.173

Question: What about the viability ([12]; 0.016 µM) of the same compound?
Answer: 1.03

Question: And the viability ([12]; 0.08 µM)?
Answer: 1.32

Question: And the viability ([12]; 0.4 µM)?
Answer: 1.37

Question: What about the viability ([12]; 2 µM) of the same compound?
Answer: 1.58

Question: And the viability ([12]; 10 µM)?
Answer: 0.101

Question: And the viability ([13]; 0.016 µM)?
Answer: 0.956

Question: What about the viability ([13]; 0.08 µM) of the same compound?
Answer: 1.13

Question: And the viability ([13]; 0.4 µM)?
Answer: 1.3

Question: And the viability ([13]; 2 µM)?
Answer: 1.5

Question: And the viability ([13]; 10 µM)?
Answer: 0.426

Question: What about the viability ([14]; 0.016 µM) of the same compound?
Answer: 0.963

Question: And the viability ([14]; 0.08 µM)?
Answer: 1.15

Question: And the viability ([14]; 0.4 µM)?
Answer: 1.17

Question: And the viability ([14]; 2 µM)?
Answer: 1.06

Question: What about the viability ([14]; 10 µM) of the same compound?
Answer: 0.0329
